Data on 1 molecule can be found in patent US5130302A, “Boronated nucleoside, nucleotide and oligonucleotide compounds, compositions and methods for using same” (Boron Bilogicals, Inc., priority 1989, dated 1992).

SMILES strings stand for the structures. In brackets after ≈: the same amount, converted by molar mass.

The subject of data set [1] is L1210 lymphoid leukemia cells. The data set can be described thus: Cytotoxicity, L1210 lymphoid leukemia cells. Type of data set: cell-based. The settings on record: Mus musculus; L1210; 72 hr at 37° C.; read-out: ED50 (cytotoxicity), L1210. The method, then:
(§1) More specifically, the cytotoxic activity of the boron adducts of the present invention was tested on the following neoplastic cell lines:
1. L1210 lymphoid leukemia cells, R. Geran et al., Cancer Chemotherapy Reports 3, 7 (1972).(grown in RPMI+15% FBS+antibiotics).
(§2) The cytotoxic screens were conducted according to NIH protocols, see E. Huang et al., J. Pharm. Sci. 61, 108 (1972), with 10^4 cells, growth medium, antibiotics and drugs from 0.5 to 100 μg/ml final concentration. For the L1210, Hela-S, amd Tmolt, (i.e. the suspended cells), the incubations were conducted in sterile test tubes in a final volume of 1 ml for 72 hr at 37° C. in a CO2 incubator. The cells on the third day were still in log growth phase. The number of cells/ml are determined using trypan blue exclusion and a hemocytometer. See, e.g., R. Geran, supra. For solid tumors there is plated out in wells 1×10^4 cells with 1 ml of medium+antibiotics and the other components of growth. When the controls have converged (≈95%) then the density of the cells is estimated and the ED50 values calculated.

In another data set the test system is inflammatory response. Briefly: Anti-inflammatory activity, carrageenan-injected hind foot. Type of data set: in vivo, CF1 male mice. The settings on record: 8 mg/kg/day; intraperitoneal, 3 hours and 30 minutes prior to carrageenan; mice. The procedure: CF1 male mice (~25 g) were administered test drugs at 5-40 mg/kg in 0.05% Tween 80--H2 O intraperitoneally 3 hours prior to and 30 minutes prior to the injection of 0.2 ml of 1% carrageenan in 0.9% saline into the plantar surface of the right hind foot. Saline was injected into the left hind foot, which serves as a base line. After 3 hours, both feet were excised at the tibiotarsal (ankle) joint according to standard procedures. See C. Winter et al., Proc. Soc. Expt. Biol Med. 544, 111 (1962); A. Roszkawski et al., J. Pharm. Exp. Ther. 179, 114 (1971). Control mice afforded a 78±3 mg increase in paw weight.

In data set [2] the test system is Tmolt acute lymphoblastic T cell leukemia. Briefly: Cytotoxicity, Tmolt acute lymphoblastic T cell leukemia. In kind it is cell-based. The procedure:
as §1
2. Tmolt^S acute lymphoblastic T cell leukemia, S. Schreiber and N. Ikemoto, Tett. Lett 29, 3211 (1988) (grown in RPMI - 1640+10% FBS).
as §2

Another data set deals with Human Osteosarcoma TE418. Briefly: Cytotoxicity, human osteosarcoma TE418. In kind it is cell-based. The settings on record: Osteosarcoma TE418, read-out: ED50 (cytotoxicity), Osteo sarcoma. The procedure: 5. Human Osteosarcoma TE418. H. Smith et al., Int. J. Cancer 17, 219 (1976) (grown in DMEM+10% FBS).
as §2

For another data set, the system named is Hela-S. The data set can be described thus: Cytotoxicity, Hela-S cervical carcinoma suspended. Type of data set: cell-based. The conditions noted are these: Homo sapiens; Hela-S; 72 hr at 37° C.; read-out: ED50 (cytotoxicity), Hela-S. The procedure: 7. Hela-S, ATCC-CCL 2.2, cervical carcinoma suspended, S. Schreiber and N. Ikemoto, supra; T. Puck et al., J. Exp. Med. 103. 273 (1956) (grown in Joklik+5% FBS, Ham's F12 +5% FBS).
as §2

Another data set relates to P388. Briefly: Cytotoxicity, P388. In kind it is cell-based. The conditions noted are these: Mus musculus, P388; read-out: ED50 (cytotoxicity), P388. The procedure:
as §2

Data set [3] relates to Human glioma cell EH 118 MG. Briefly: Cytotoxicity, human glioma cell EH 118 MG. In kind it is cell-based. The conditions noted are these: Glioma EH 118 MG, read-out: ED50 (cytotoxicity), Glioma. The procedure:
9. Human glioma cell EH 118 MG transformed stain of Rous sarcoma virus, J. Lutton et al., J. Biol. Chem. 254, 11181 (1979) (grown in DMEM-H+10% FCS).
as §2

The subject of data set [4] is Serum triglyceride levels. Briefly: Antihyperlipidemic activity, serum triglyceride. Type of data set: in vivo, male CF1 mice. The settings on record: 8 mg/kg/day; intraperitoneal, bled on day 16; mice. The method, then: (§3) Compounds to be tested were suspended in 1% aqueous carboxymethylcellulose,homogenized and administered to male CF1 mice (25 g) intraperitoneally for 16d. On days 9 and 16, blood was obtained by tail vein bleeding, and the serum was separated by centrifugation for three minutes. The serum cholesterol levels were determined by a modification of the Liebermann--Burchard reaction in accordance with known techniques. See A. Ness, et al., Clin. Chim. Acta 10, 229 (1964). Serum triglyceride levels were determined with a commercial kit, the Fisher Hycel Triglyceride Test Kit, for a different group of animals bled on day 16.

For data set [5], the system named is Lung bronchogenic MB-9812. Briefly: Cytotoxicity, lung bronchogenic MB-9812. In kind it is cell-based. The settings on record: Lung bronchogenic MB-9812; read-out: ED50 (cytotoxicity), Lung Bronchogenic. The method, then:
4. Lung bronchogenic MB-9812, S. Aronson et al., Expt. Cell Res. 61, 1 (1970) (grown in EMEM+10% FBS+NEAA).
as §2

The next data set relates to serum cholesterol levels. Briefly: Antihyperlipidemic activity, serum cholesterol. In kind it is in vivo, male CF1 mice. The conditions noted are these: 8 mg/kg/day; intraperitoneal for 16d; mice. The method, then:
as §3

The nature of data set [6]: Stability in aqueous medium by HPLC. In kind it is physicochemical. The method, then:
By HPLC, compounds 3a, 3b, and 3d in aqueous medium (0.01 M TEAAc) are >94% stable over a period of 168 h. […], however, is >50% decomposed during this period.

Data set [7] has as its system KB epidermoid oral nesopharnyx. Briefly: Cytotoxicity, KB epidermoid oral nasopharynx. Type of data set: cell-based. The settings on record: Homo sapiens, read-out: ED50 (cytotoxicity), KB. The procedure: 6. KB epidermoid oral nesopharnyx. R. Geran, supra: H. Eagle, Proc. Soc. Expt.
Biol. 89, 362 (1955)(grown in EMEM +5% calf serum).
as §2

Data set [8] has as its system SW480 human colorectal carcinoma. The data set can be described thus: Cytotoxicity, colon adenocarcinoma SW480 human colorectal carcinoma. Type of data set: cell-based. The method, then: as §1
3. Colon adenocarcinoma SW480 human colorectal carcinoma. A. Leibovitz et al., Cancer Res. 36, 4562 (1976) (grown in L15+10% FBS).
as §2

As for `N#C[BH2-][n+]1c(N)ccn([C@H]2C[C@H](O)[C@@H](CO)O2)c1=O` [Compound 3d, 2' Deoxycytidine-N3-cyanoborane], the IC50 in [1] worked out at 2.61 µg/mL (≈ 9.81 µM); in [2] (T-cell, Tmolt, 72 hr at 37° C., read-out: ED50 (cytotoxicity), Tmolt), 1.13 µg/mL (≈ 4.25 µM); in the data set on Human Osteosarcoma TE418, 4.63 µg/mL (≈ 17.4 µM); with Hela-S, 3.37 µg/mL (≈ 12.7 µM); in the data set on P388, 3.17 µg/mL (≈ 11.9 µM); in data set [3] it was 4.39 µg/mL (≈ 16.5 µM). Also, the IC50 was 3.73 µg/mL (≈ 14 µM) in data set [5]; 5.46 µg/mL (≈ 20.5 µM) in [7]; 2.96 µg/mL (≈ 11.1 µM) in data set [8] (Homo sapiens, SW480, read-out: ED50 (cytotoxicity), Adeno Carcinoma SW480). For the same molecule, the “Antiinflammatory Activity, % inhibition” value with inflammatory response amounted to 52%. In addition, the “activity in T molt-3 screen” value in data set [2] (in words) is listed as “potent activity”. Further, the “Hypolipidemic: Triglyceride Inhibition, % inhibition” value in [4] worked out at 23%. The “Hypolipidemic: Cholesterol Inhibition, % inhibition” value in the data set on serum cholesterol levels came to 38%. Also, in data set [6] (0.01 M TEAAc, period of 168 h, HPLC, read-out: stable in aqueous medium), the remaining at 168 h was > 94%. For the same molecule, the “stability in aqueous medium” value in data set [6] (in words, aqueous medium) was “good stability”. Further, the “activity in human colorectal adenocarcinoma screen” value in [8] (in words) is on record as “potent activity”.
